The text below walks through data of EPA's ToxValDB 9.5 (doi:10.2903/j.efsa.2009.336r).

Structures are written as SMILES. A value given as a limit tells only on which side of the number the result lay.

Usually NOAEL stands for the highest tested level that showed no adverse finding.

One series concerns Colinus virginianus. The following applies: acute, oral, mortality.
The next series deals with Tagia sp. To be noted: acute; duration: 14 days; mortality.
Another series relates to Daphnia magna. The following applies: chronic/long-term; duration: 21 days; reproduction.
The test system of another series is Oncorhynchus mykiss. The following applies: chronic/long-term; duration: 95 days.
The next series relates to Avena sativa. To be noted: not reported; no effects.
Another series concerns Bibionidae. The following applies: chronic/long-term; duration: 28 days; other.
A further series deals with Lepomis macrochirus. To be noted: acute; duration: 96 hours; mortality.
A further series concerns Apis mellifera. The following applies: acute; duration: 48 hours; oral; unspecified; mortality.
The subject of another series is Canidae. To be noted: chronic; duration: 52 weeks; oral; Dog Other; organ weight.

As to `CC(COc1ccc(Oc2ccccc2)cc1)Oc1ccccn1` (centres undefined) [Pyriproxyfen], the LC50 in the series with Colinus virginianus (diet) was above 863 mg/kg-day; with Tagia sp. it was above 1000 mg/kg; in the series on Lepomis macrochirus, above 0.27 µg/mL. In addition, the LD50 was above 1910 mg/kg in the series with Colinus virginianus; above 1910 mg/kg in the series on Anas platyrhynchos (acute, oral, unspecified, mortality); above 5000 mg/kg in the series on Rattus norvegicus (acute, oral, mortality); above 74 µg/piece in the series on Apis mellifera. The NOEC in the series on Anas platyrhynchos (reproductive) came out at 70.2 mg/kg-day; in the series on Daphnia magna, 1.5e-05 mg/L; with Oncorhynchus mykiss, 0.0043 mg/L; with Bibionidae, 0.01 mg/L. The LEL in the series on Avena sativa was found to be 8000 g/ha. The no-observed-adverse-effect level (NOAEL) worked out at 13.3 mg/kg-day in the series on Rattus norvegicus (reproduction developmental, organ weight) and 10 mg/kg-day in the series on Canidae.
